In patent US20030125389A1, “Beta-amino acid derivatives useful for the treatment of bacterial infections” (priority 2001, published 2003):

Assays:
[1] = tested on: Escherichia coli ATCC 25922; assay: Mouse septicemia model; assay type: in vivo; conditions: ATCC25922, ICR male mice, E. coli ATCC 25922 intraperitoneally, compound PO or IV at 1 and 5 hours after inoculation, mortality recorded for 7 days
Procedure: Escherichia coli ATCC 25922 was used to test the efficacy of compounds in a mouse septicemia model using six ICR male mice per group. Mice were inoculated intraperitoneally with 2×10^5 cfu/mouse in 0.5 ml of Brain-Heart Infusion broth supplemented with 5% mucin. The compounds were tested at 40, 20, 10, 5 and 2.5 mg/kg orally (PO) or at 20, 10, 5 and 2.5 mg/kg intravenously (IV) at 1 and 5 hours after bacterial inoculation. Controls included vehicle control (0.9% NaCl, 10 ml/kg) and an antibiotic control with ampicillin. Mortality was recorded for 7 days, and an ED50 was determined by non-linear regression.

[2] = tested on: a variety of standard laboratory microorganisms; conditions: cited from earlier work
[3] = tested on: Gram negative and Gram positive bacteria; conditions: against Gram negative and Gram positive bacteria; cited from earlier work

| SMILES | ED50 [1] [mg/kg] | also measured |
| --- | --- | --- |
| CNC[C@H](F)C[C@@H](N)CC(=O)NN(C)CC(=O)O [Example 7, {N′-[(3R)-Amino-(5R)-fluoro-6-methylaminohexanoyl]-N-methylhydrazino}acetic acid] | < 40 | – |
| CN(CC(=O)O)NC(=O)C[C@H](N)CCCN [Deoxynegamycin, D-3,6-diaminiohexanoic acid-2-(carboxymethyl)-2-methylhyrazide] | – | antimicrobial activity in vitro [2]: broad-spectrum antibacterial and antifungal activity |
| CN(CC(=O)O)NC(=O)C[C@H](N)C[C@@H](O)CN [Negamycin, [2-{(3R, 5R)-3,6-diamino-5-hydroxyhexanoyl}-1-methylhydrazino]acetic acid] | – | inhibitory activity [3]: strong inhibitory activity |
| CN(CC(=O)O)NC(=O)C[C@H](N)C[C@@H](F)CN [Example 5, {N′-[(3R)-Amino-6-amino-(5R)-fluorohexanoyl]-N-methylhydrazino}acetic acid] | < 40 | – |
| CNC[C@H](O)C[C@@H](N)CC(=O)NN(C)CC(=O)O [Example 1] | < 40 | – |
